Assay results taken from US20160158200A1, “Combinations of Hepatitis C Virus Inhibitors” (priority 2013, published 2016).

System: HCV genotype-1a variant with glutamine 30 changed to glutamate in the NS5A protein
Format: cell-based
Conditions: test compound titrated with BMS-790052 fixed at 200 nM; genotype 1a Q30E replicon
From the text: The NS5A synergistic inhibitory effect of test compounds can be determined using various amounts of an NS5A-targeting compound with titration of a second compound of interest. […] In one embodiment, the HCV genotype strain can be genotype 1a containing a change at amino acid 30 of the NS5A protein consisting of glutamine to glutamate. The test compound can be chosen from compounds listed above or from others present in the literature.

Structure (SMILES) | Fold-Synergistic 1a (Q30E)
CC(C)(C(=O)N[C@H](c1nc(-c2ccc(-c3ccc(-c4c[nH]c([C@@H](NC(=O)C(C)(C)C(O)c5ccccc5F)C(C)(C)C)n4)cc3)cc2)c[nH]1)C(C)(C)C)C(O)c1ccccc1F (single isomer, unassigned) [Compound N-124C] | >100 fold
COc1ccccc1C(O)C(C)(C)C(=O)N[C@H](c1nc(-c2ccc(-c3ccc(-c4c[nH]c([C@@H](NC(=O)C(C)(C)C(O)c5ccccc5OC)C(C)(C)C)n4)cc3)cc2)c[nH]1)C(C)(C)C (single isomer, unassigned) [Compound N-125A] | >100 fold
COc1ccccc1C(O)C(C)(C)C(=O)N[C@H](c1nc(-c2ccc(-c3ccc(-c4c[nH]c([C@@H](NC(=O)C(C)(C)C(O)c5ccccc5OC)C(C)(C)C)n4)cc3)cc2)c[nH]1)C(C)(C)C (single isomer, unassigned) [Compound N-125B] | >100 fold
COc1ccccc1C(O)C(C)(C)C(=O)N[C@H](c1nc(-c2ccc(-c3ccc(-c4c[nH]c([C@@H](NC(=O)C(C)(C)C(O)c5ccccc5OC)C(C)(C)C)n4)cc3)cc2)c[nH]1)C(C)(C)C (single isomer, unassigned) [Compound N-125C] | >100 fold
CC(C)(C)[C@H](NC(=O)C1(C(O)c2ccccc2)CC1)c1nc(-c2ccc(-c3ccc(-c4c[nH]c([C@@H](NC(=O)C5(C(O)c6ccccc6)CC5)C(C)(C)C)n4)cc3)cc2)c[nH]1 (single isomer, unassigned) [Compound N-126A] | >100 fold
CC(C)(C)[C@H](NC(=O)C1(C(O)c2ccccc2)CC1)c1nc(-c2ccc(-c3ccc(-c4c[nH]c([C@@H](NC(=O)C5(C(O)c6ccccc6)CC5)C(C)(C)C)n4)cc3)cc2)c[nH]1 (single isomer, unassigned) [Compound N-126B] | >100 fold
CC(C)(C)[C@H](NC(=O)C1(C(O)c2ccccc2)CC1)c1nc(-c2ccc(-c3ccc(-c4c[nH]c([C@@H](NC(=O)C5(C(O)c6ccccc6)CC5)C(C)(C)C)n4)cc3)cc2)c[nH]1 (single isomer, unassigned) [Compound N-126C] | >100 fold
CC(C)(C(=O)N[C@H](c1nc(-c2ccc(-c3ccc(-c4c[nH]c([C@@H](NC(=O)C(C)(C)C(O)c5ccccc5)C(C)(C)C)n4)cc3)cc2)c[nH]1)C(C)(C)C)C(O)c1ccccc1 (single isomer, unassigned) [Compound N-127A] | >100 fold
CC(C)(C(=O)N[C@H](c1nc(-c2ccc(-c3ccc(-c4c[nH]c([C@@H](NC(=O)C(C)(C)C(O)c5ccccc5)C(C)(C)C)n4)cc3)cc2)c[nH]1)C(C)(C)C)C(O)c1ccccc1 (single isomer, unassigned) [Compound N-127B] | >100 fold
CC(C)(C(=O)N[C@H](c1nc(-c2ccc(-c3ccc(-c4c[nH]c([C@@H](NC(=O)C(C)(C)C(O)c5ccccc5)C(C)(C)C)n4)cc3)cc2)c[nH]1)C(C)(C)C)C(O)c1ccccc1 (single isomer, unassigned) [Compound N-127C] | >100 fold
CC(C)(C(=O)N[C@H](c1nc(-c2ccc(-c3ccc(-c4c[nH]c([C@@H](NC(=O)C(C)(C)C(O)c5ccccn5)C(C)(C)C)n4)cc3)cc2)c[nH]1)C(C)(C)C)C(O)c1ccccn1 (single isomer, unassigned) [Compound N-128A] | >100 fold
CC(C)(C(=O)N[C@H](c1nc(-c2ccc(-c3ccc(-c4c[nH]c([C@@H](NC(=O)C(C)(C)C(O)c5ccccn5)C(C)(C)C)n4)cc3)cc2)c[nH]1)C(C)(C)C)C(O)c1ccccn1 (single isomer, unassigned) [Compound N-128B] | >100 fold
COc1ccccc1C(O)CC(=O)N[C@H](c1nc(-c2ccc(-c3ccc(-c4c[nH]c([C@@H](NC(=O)C5(C(O)c6ccccc6OC)CC5)C(C)(C)C)n4)cc3)cc2)c[nH]1)C(C)(C)C (single isomer, unassigned) [Compound N-135A] | >100 fold
COc1ccccc1C(O)CC(=O)N[C@H](c1nc(-c2ccc(-c3ccc(-c4c[nH]c([C@@H](NC(=O)C5(C(O)c6ccccc6OC)CC5)C(C)(C)C)n4)cc3)cc2)c[nH]1)C(C)(C)C (single isomer, unassigned) [Compound N-135B] | >100 fold
COc1ccccc1C(O)CC(=O)N[C@H](c1nc(-c2ccc(-c3ccc(-c4c[nH]c([C@@H](NC(=O)C5(C(O)c6ccccc6OC)CC5)C(C)(C)C)n4)cc3)cc2)c[nH]1)C(C)(C)C (single isomer, unassigned) [Compound N-135C] | >100 fold
COC(c1ccccc1)C1(C(=O)N[C@H](c2nc(-c3ccc(-c4ccc(-c5c[nH]c([C@@H](NC(=O)C6(C(OC)c7ccccc7)CC6)C(C)(C)C)n5)cc4)cc3)c[nH]2)C(C)(C)C)CC1 (single isomer, unassigned) [Compound N-137A] | >100 fold
COC(c1ccccc1)C1(C(=O)N[C@H](c2nc(-c3ccc(-c4ccc(-c5c[nH]c([C@@H](NC(=O)C6(C(OC)c7ccccc7)CC6)C(C)(C)C)n5)cc4)cc3)c[nH]2)C(C)(C)C)CC1 (single isomer, unassigned) [Compound N-137B] | >100 fold
COC(c1ccccc1)C1(C(=O)N[C@H](c2nc(-c3ccc(-c4ccc(-c5c[nH]c([C@@H](NC(=O)C6(C(OC)c7ccccc7)CC6)C(C)(C)C)n5)cc4)cc3)c[nH]2)C(C)(C)C)CC1 (single isomer, unassigned) [Compound N-137C] | >100 fold
CC(O)(CF)C(=O)N[C@H](c1nc(-c2ccc(-c3ccc(-c4c[nH]c([C@@H](NC(=O)C(C)(O)CF)C(C)(C)C)n4)cc3)cc2)c[nH]1)C(C)(C)C (single isomer, unassigned) [Compound N-139A] | >100 fold
CC(O)(CF)C(=O)N[C@H](c1nc(-c2ccc(-c3ccc(-c4c[nH]c([C@@H](NC(=O)C(C)(O)CF)C(C)(C)C)n4)cc3)cc2)c[nH]1)C(C)(C)C (single isomer, unassigned) [Compound N-139B] | >100 fold
CC(O)(CF)C(=O)N[C@H](c1nc(-c2ccc(-c3ccc(-c4c[nH]c([C@@H](NC(=O)C(C)(O)CF)C(C)(C)C)n4)cc3)cc2)c[nH]1)C(C)(C)C (single isomer, unassigned) [Compound N-139C] | >100 fold
CC(C)(C(=O)N[C@H](c1nc(-c2ccc(-c3ccc(-c4c[nH]c([C@@H](NC(=O)C(C)(C)C(O)C5CCC(F)(F)CC5)C(C)(C)C)n4)cc3)cc2)c[nH]1)C(C)(C)C)C(O)C1CCC(F)(F)CC1 (single isomer, unassigned) [Compound N-143A] | >100 fold
CC(C)(C(=O)N[C@H](c1nc(-c2ccc(-c3ccc(-c4c[nH]c([C@@H](NC(=O)C(C)(C)C(O)C5CCC(F)(F)CC5)C(C)(C)C)n4)cc3)cc2)c[nH]1)C(C)(C)C)C(O)C1CCC(F)(F)CC1 (single isomer, unassigned) [Compound N-143B] | >100 fold
CC(C)(C(=O)N[C@H](c1nc(-c2ccc(-c3ccc(-c4c[nH]c([C@@H](NC(=O)C(C)(C)C(O)C5CCC(F)(F)CC5)C(C)(C)C)n4)cc3)cc2)c[nH]1)C(C)(C)C)C(O)C1CCC(F)(F)CC1 (single isomer, unassigned) [Compound N-143C] | >100 fold
